Test results published in patent US5342838A, “Phenolic thioetheramides” (G. D. Searle & Co., priority 1993, dated 1994).

Legend:
[1] = tested on: FMLP-stimulated human neutrophils (superoxide generation); assay: Human neutrophil superoxide generation, FMLP-stimulated, cytochrome C reduction; type: cell-based; settings: for Effect on FMLP Induced Superoxide: stimulated (% > control) / activation at 50 µM: % above control; for activation at 50 µM / inhibition at 50 µM: Homo sapiens; for activation at 50 µM: stimulated at 50 μM, read-out: Effect on FMLP Induced Superoxide: stimulated (% > control); for inhibition at 50 µM: inhibited at 50 μM, read-out: Effect on FMLP Induced Superoxide: inhibited (% < control)
Method: The compounds of the invention are evaluated with respect to superoxide modulating activity according to the following assay procedure:
Human neutrophil superoxide generation:
Superoxide generation by formyl-methionyl-leucyl-phenylalanine (FMLP)-stimulated neutrophils was quantitated by the reduction of cytochrome C (Badwey, J. A., Curnutte, J. T. and Karnovsky, M. L., cis-Polyunsaturated fatty acids induce high levels of superoxide production by human neutrophils. J. Biol. Chem. 256: 12640-12643, 1981.) To 5 million neutrophils in 2.85 ml of Krebs-Ringer phosphate buffer, pH 7.2, 50 ul of inhibitor (in 10% DMSO/buffer), and 50 ul ferricytochrome C (5 mM, stock) were added and preincubated for 3 minutes at 37° C. Absorption measurements at 550 nm were recorded at start of preincubation. Fifty ul FMLP (6 μM, stock) was added to initiate reaction. A plateau was reached within 3 minutes and this reading - initial reading (before addition of FMLP) was used to calculate nanomoles of superoxide generated based on a molar extinction coefficient of 2.1×10^4 cm^-1 mole^-1.
Isolation of human neutrophils:
Human neutrophils were isolated from freshly drawn blood of healthy donors. Two ml of 5% dextran (MW 200,000-300,000) in saline was added to 10 ml aliquots of blood, mixed and placed upright for 45 min. at 37° C. Approx. 8-10 ml of the plasma-white cell suspension from the dextran sedimentation was layered on 3 ml of Ficol-paque in a 15 ml tube and centrifuged at 400 g for 30 min. The supernate, containing plasma and platelets, was discarded by aspiration, and the pellet, containing predominantly neutrophils, was resuspended in 1 ml saline. The suspension was transferred to a clean tube, and pooled with other aliquots of blood treated similarly. The pooled suspension was centrifuged at 350 g for 5 min. and supernate discarded. The pellet was resuspended in 5 ml of 0.05% NaCl with a plastic Pasteur pipette for 25 seconds to lyse contaminating red cells, then 5 ml of 1.75% NaCl added to regain isotonicity. The red cell lysing procedure was repeated, the cells suspended in appropriate buffer (depending on assay) and counted.

5-lipoxygenase = target: T1, 5-lipoxygenase (Rattus norvegicus, UniProt P12527); assay: Inhibition of 5-lipoxygenase, in vitro (5-HETE synthesis, RBL-1 100,000 x g supernatant); type: biochemical; settings: RBL-1 homogenate supernatant
T1 construct: supernatant fraction of Rat Basophilic Leukemia Cell Homogenate (RBL-1) serves as a 5-lipoxygenase enzyme source; endogenous in cells; host or cells: RBL-1 (rat basophilic leukemia) cell homogenate, 100,000 x g supernatant
T1 sequence (P12527 1-673): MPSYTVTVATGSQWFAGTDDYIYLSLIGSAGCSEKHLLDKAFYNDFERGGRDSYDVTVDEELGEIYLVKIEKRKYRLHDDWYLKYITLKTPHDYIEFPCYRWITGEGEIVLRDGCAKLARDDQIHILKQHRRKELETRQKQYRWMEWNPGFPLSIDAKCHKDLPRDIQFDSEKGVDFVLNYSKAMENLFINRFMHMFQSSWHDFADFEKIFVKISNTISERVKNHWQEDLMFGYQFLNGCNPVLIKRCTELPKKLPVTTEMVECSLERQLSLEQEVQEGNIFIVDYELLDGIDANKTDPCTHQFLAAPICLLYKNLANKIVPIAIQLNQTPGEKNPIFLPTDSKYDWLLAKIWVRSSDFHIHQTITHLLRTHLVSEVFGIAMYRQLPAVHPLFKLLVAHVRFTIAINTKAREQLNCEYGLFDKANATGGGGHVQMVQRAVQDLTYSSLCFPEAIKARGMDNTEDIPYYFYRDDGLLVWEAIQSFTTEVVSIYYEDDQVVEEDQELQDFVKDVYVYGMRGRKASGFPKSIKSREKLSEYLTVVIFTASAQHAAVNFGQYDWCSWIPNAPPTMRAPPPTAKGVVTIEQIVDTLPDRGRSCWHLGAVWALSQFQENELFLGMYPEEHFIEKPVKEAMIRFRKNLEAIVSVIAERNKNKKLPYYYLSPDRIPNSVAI
Method: The compounds of the invention are evaluated with respect to 5-lipoxygenaseinhibition according to the following assay procedure.
Inhibition of 5-lipoxygenase, in vitro: anti-inflammatory, anti-allergy activities.
The 100,000 x g supernatant fraction of Rat Basophilic Leukemia Cell Homogenate (RBL-1) serves as a 5-lipoxygenase enzyme source. The enzyme is incubated with [1-^14 C)-arachidonic acid and Ca++ in the presence and absence of test compound. The product of 5-lipoxygenase, 5-hydroxyeicosatetraenoic acid (5-HETE), is separated by thin-layer chromatography and measured by radioactivity. A compound inhibiting 5-HETE synthesis by 30% or more is considered active at that concentration.

[2] = versus histamine; cited from earlier work

SMILES	IC50 (5-lipoxygenase)	Effect on FMLP Induced Superoxide: stimulated (% > control) ([1]; stimulated at 1-50 μM)	further results
C[C@H](Sc1cc(C(C)(C)C)c(O)c(C(C)(C)C)c1)[C@@H](C)OCC(=O)N(C)CCc1ccccn1 (relative stereo) [Example 14, (±)2S*-[2-[[3,5-bis(1,1-dimethylethyl)-4-hydroxyphenyl]thio]-1R*-methylpropoxy]-N-methyl-N-[2-(2-pyridinyl)ethyl]acetamide]	220 nM	–	Effect on FMLP Induced Superoxide: inhibited (% < control) ([1]; inhibited at 25-50 μM, % below control): 57%; Effect on FMLP Induced Superoxide: stimulated (% > control) ([1]; stimulated at 1-10 μM): 171%
C[C@H](Sc1cc(C(C)(C)C)c(O)c(C(C)(C)C)c1)[C@@H](C)SCC(=O)NCc1ccncc1 (relative stereo) [Example 17, (±)2S*-[[[2-[[3,5-bis(1,1-dimethylethyl)-4-hydroxyphenyl]thio]-1R*-methylpropyl]thio]-N-(4-pyridinylmethyl)acetamide]	200 nM	60%	–
C[C@H](Sc1cc(C(C)(C)C)c(O)c(C(C)(C)C)c1)[C@@H](C)OCC(=O)N1CCN(Cc2ccccc2)CC1 (relative stereo) [Example 19, (±)1-[2-[2S*-[[3,5-bis(1,1-dimethylethyl)-4-hydroxyphenyl]thio]-1R*-methylpropoxy]-1-oxoethyl]-4-(phenylmethyl)piperazine]	460 nM	33%	–
CC(=O)c1ccc(N2CCN(C(=O)CS[C@H](C)[C@H](C)Sc3cc(C(C)(C)C)c(O)c(C(C)(C)C)c3)CC2)cc1 (relative stereo) [Example 22, (±) 1-(4-acetylphenyl)-4-[2-[[2S*-[[3,5-bis(1,1-dimethylethyl)-4-hydroxyphenyl]thio]-1R*-methylpropyl]thio]-1-oxoethyl]piperazine]	170 nM	–	activation at 50 µM ([1]; Neutrophil): 17%
C[C@H](Sc1cc(C(C)(C)C)c(O)c(C(C)(C)C)c1)[C@@H](C)OCC(=O)O (relative stereo) [Formula IV, reference compound]	–	–	Effect on superoxide generation, in words ([1]; FMLP-stimulated human neutrophils): inhibited both superoxide generation and 5-lipoxygenase; IC50 ([1]; Neutrophil, FMLP-stimulated human neutrophils, read-out: Effect on FMLP Induced Superoxide: inhibited superoxide generation, IC50): 11000 nM
CC(C)(C)c1cc(SCCSCC(=O)NCc2ccccn2)cc(C(C)(C)C)c1O [Example 13, 2-[[2-[3,5-bis(1,1-dimethylethyl)-4-hydroxyphenyl]thiolethyl]thio]-N-(2-pyridinylmethyl)acetamide]	160 nM	171%	–
CC(C)(C)c1cc(SCCSCC(=O)NCc2cccnc2)cc(C(C)(C)C)c1O [Example 15, 2-[[2-[[3,5-bis (1,1-dimethylethyl)-4-hydroxyphenyl]thio]ethyl]thio]-N-(3-pyridinylmethyl)acetamide]	130 nM	–	inhibition at 50 µM ([1]; Neutrophil, % below control): 13%; Effect on FMLP Induced Superoxide: stimulated (% > control) ([1]; stimulated at 1-10 μM): 38%
CN(CCc1ccccn1)C(=O)CCSCCSc1cc(C(C)(C)C)c(O)c(C(C)(C)C)c1 [Example 16, 3-[[2-[[3,5-bis(1,1-dimethylethyl)-4-hydroxyphenyl]thio]ethyl]thio]-N-methyl-N-[2-(2-pyridinyl)ethyl]propanamide]	160 nM	146%	inhibition at 50 µM ([1]; Neutrophil, % below control): 13%
CN1CCN(C(=O)CSCCSc2cc(C(C)(C)C)c(O)c(C(C)(C)C)c2)CC1 [Example 20, 1-[2-[[2-[[3,5-bis(1,1-dimethyethyl)-4-hydroxypheny]thio]ethyl]thio]-1-oxoethyl]-4-methylpiperazine]	400 nM	–	inhibition at 50 µM ([1]; Neutrophil, % below control): 100%; Effect on FMLP Induced Superoxide: stimulated (% > control) ([1]; stimulated at 1-25 μM): 135%
CC(C)(C)c1cc(SCCSCCC(=O)N2CCC(N3CCCCC3)CC2)cc(C(C)(C)C)c1O [Example 21, 1-[3-[[2-[[3,5-bis(1,1-dimethylethyl)-4-hydroxyphenyl]thio]ethyl]thio]-1-oxopropyl]-4-(1-piperidinyl)piperidine]	150 nM	–	activation at 50 µM ([1]; Neutrophil): 46%
CCCCC/C=C\C\C=C/C=C/C=C/[C@@H](SC[C@H](NC(=O)CC[C@H](N)C(=O)O)C(=O)NCC(=O)O)[C@@H](O)CCCC(=O)O [LTC4]	–	–	potency in causing long lasting bronchoconstricting effects relative to histamine [2]: at least 100 times
